Measured values: patent US20250361233A1, “Compounds For Activating Serotonin Receptor” (PSYLO PTY LTD, priority 2023, published 2025)

How the values were obtained:
C57BL/6J mice = test: Biotelemetry and head-twitch response (HTR) experiments; type: in vivo, mice (C57BL/6J males); settings: male C57BL/6 mice, SC, several doses (0.03 to 30 mg/kg)
Excerpt: Mice (C57BL/6J males) were purchased from the Jackson Laboratory (Bar Harbor, ME, USA) at 5-6 weeks of age and allowed at least 1-2 weeks to acclimate to the NIDA, Intramural Research Program (IRP), animal research facility in Baltimore, MD, USA. The animal facility is fully accredited by the Association for the Assessment and Accreditation of Laboratory Animal Care, and all procedures were approved by the NIDA IRP Animal Care and Use Committee. Mice were initially group housed 3-5 per cage during acclimation and housed in a 12 h light-dark cycle throughout the study, with lights on at 0700 h. Food and water were available ad libitum except during testing. Cohorts of 20-24 mice were used for each test drug. The mice were subjected to experimental testing once every 1-2 weeks for 2-3 months to complete dose-effect curves and antagonist experiments. A minimum of 7 days between treatments was utilized to avoid any tolerance to effects of repeated drug administration. All drug doses represent the weight of the salt dissolved in 0.9% saline vehicle. Mice were tested first in dose-response studies to assess the effects of each compound at doses from 0.03 to 30 mg/kg s.c. and were subsequently tested in antagonist reversal studies utilizing pretreatment with M100907 and WAY100635. All experiments were conducted from 0900 to 1700 local time during the light phase, as sensitivity of rodents to other tryptamine psychedelics is diurnal, with maximal HTR observed in the middle of the light phase. […]
Subcutaneous Temperature Transponder Implants. […] Temperature was determined noninvasively using a handheld receiver that is sensitive to signals emitted from the implanted transponders.
Prior to each experiment, mouse body weight and temperature were recorded. […] In dose-response studies, after a brief 5 min acclimation, mouse body temperature was recorded for baseline measurement, mice received s.c. injection of test substance or vehicle, and animals were returned to the testing arena for 30 min. During the session, locomotor activity was monitored via photobeam tracking of movements in the horizontal plane to yield distance traveled in centimeter. HTR was monitored by the analysis of GoPro Hero Black 7 video recordings (120 frames per see and 960p resolution) using a commercially available software package from Clever Sys Inc. (Reston, VA, USA).82 Post-treatment body temperature values were also recorded, and temperature data are represented as change from pretreatment baseline.
In antagonist reversal experiments, mice received a s.c. injection of either receptor antagonists or vehicle and were returned to the testing chamber for 30 min. During this period, locomotor activity was monitored to examine the potential effects of antagonist treatment on general behavior or movement. […]

Male ICR mice = test: Acute restraint stress - tail suspension test (TST); type: in vivo; settings: ICR mice after 5 h acute restraint stress, IP; P-3 3, 10 mg/kg; P-8 3, 10, 30 mg/kg; vs vehicle
Protocol: Male ICR mice (23±3 g) were purchased from BioLASCO (Taipei, Taiwan) at 4-5 weeks of age and allowed 5-7 days to acclimate to the animal research facility at Pharmacology Discovery Services (Taipei, Taiwan). Mice were housed in groups of 10 in a large cage (47×25×15 cm) on a 12-hour light cycle (lights on: 0700) and provided ad libitum food and water except during acute restraint stress and tail-suspension testing. Temperature was maintained at 20-24° C., and all rooms (colony and testing rooms) had similar lighting intensity. All aspects of this work including housing, experimentation, and animal disposal were performed in accordance with the “Guide for the Care and Use of Laboratory Animals: Eighth Edition” (The National Academies Press, Washington, DC, 2011) in a facility accredited by the Association for Assessment and Accreditation of Laboratory Animal Care. […]
Tail Suspension Test (TST) Procedure: Mice were individually suspended on the edge of a shelf, 58 cm above a tabletop, using adhesive tape placed approximately 1 cm from the tip of the tail, for a total duration of 7 minutes. Using a stopwatch, the experimenters blinded to treatment groups recorded the duration of immobility (defined as hanging passively and motionless) during the 5 minutes spanning from 2-7 minutes. The data from 0-2 minutes was not recorded. […]

Row | Compound | Head-twitch response (HTR) (C57BL/6J mice) | Tolerability (temperature, locomotor activity, HTR; FIGS. 2-5) (C57BL/6J mice) | Immobility time in tail suspension test (FIG. 6) (Male ICR mice)
1 | COc1cnc2[nH]cc(CCN(C)C)c2c1 [Compound P-3, 2-(5-methoxy-1H-pyrrolo[2,3-b]pyridin-3-yl)-N,N-dimethylethan-1-amine] | not promoting increased head-twitch response | well-tolerated | decrease the immobility time of mice
2 | COc1ccnc2[nH]cc(CCN(C)C)c12 [Compound P-4, 2-(4-methoxy-1H-pyrrolo[2,3-b]pyridin-3-yl)-N,N-dimethylethan-1-amine] | not promoting increased head-twitch response | well-tolerated | 
